This note sets out measurements from ChEMBL document CHEMBL1122964, “Conformational analysis and active site modelling of angiotensin-converting enzyme inhibitors” (J Med Chem, 1985).

Where a SMILES comes first, the peptide text is derived from it. The star is where a group is joined. Bz = O=C(c1ccccc1)*

T1 sequence (P12821 whole entry): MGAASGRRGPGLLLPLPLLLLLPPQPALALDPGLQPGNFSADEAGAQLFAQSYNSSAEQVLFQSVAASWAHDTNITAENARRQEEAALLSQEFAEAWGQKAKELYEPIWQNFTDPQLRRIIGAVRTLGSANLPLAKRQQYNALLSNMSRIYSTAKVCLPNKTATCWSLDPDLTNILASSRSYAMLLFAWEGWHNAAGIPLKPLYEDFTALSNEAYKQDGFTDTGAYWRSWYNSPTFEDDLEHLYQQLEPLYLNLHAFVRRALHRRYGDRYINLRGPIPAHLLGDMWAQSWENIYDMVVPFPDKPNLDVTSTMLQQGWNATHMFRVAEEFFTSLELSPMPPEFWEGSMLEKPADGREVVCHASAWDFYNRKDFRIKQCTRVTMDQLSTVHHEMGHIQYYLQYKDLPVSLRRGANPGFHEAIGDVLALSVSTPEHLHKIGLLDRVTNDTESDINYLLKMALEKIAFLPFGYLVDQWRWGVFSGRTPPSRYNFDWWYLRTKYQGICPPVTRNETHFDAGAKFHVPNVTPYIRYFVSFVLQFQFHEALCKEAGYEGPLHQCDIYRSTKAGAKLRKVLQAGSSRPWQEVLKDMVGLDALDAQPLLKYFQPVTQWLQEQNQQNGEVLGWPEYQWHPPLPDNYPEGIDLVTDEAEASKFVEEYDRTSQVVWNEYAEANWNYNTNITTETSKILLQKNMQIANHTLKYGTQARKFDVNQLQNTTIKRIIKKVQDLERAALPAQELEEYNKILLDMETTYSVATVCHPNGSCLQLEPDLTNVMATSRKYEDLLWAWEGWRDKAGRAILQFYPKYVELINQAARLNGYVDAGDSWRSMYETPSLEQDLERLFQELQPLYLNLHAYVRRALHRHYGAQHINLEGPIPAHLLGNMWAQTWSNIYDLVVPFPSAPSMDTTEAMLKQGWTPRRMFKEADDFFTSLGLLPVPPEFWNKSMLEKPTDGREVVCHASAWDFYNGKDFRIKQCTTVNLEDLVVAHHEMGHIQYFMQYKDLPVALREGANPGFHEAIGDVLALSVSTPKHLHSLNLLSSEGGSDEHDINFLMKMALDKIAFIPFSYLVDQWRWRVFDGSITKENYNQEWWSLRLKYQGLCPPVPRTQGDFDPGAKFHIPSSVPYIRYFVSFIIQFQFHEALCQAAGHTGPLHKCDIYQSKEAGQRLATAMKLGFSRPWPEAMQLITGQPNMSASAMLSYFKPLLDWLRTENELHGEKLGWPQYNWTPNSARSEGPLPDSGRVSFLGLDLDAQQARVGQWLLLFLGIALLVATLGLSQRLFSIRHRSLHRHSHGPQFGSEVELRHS

One experiment has as its target T1, Angiotensin-converting enzyme (Homo sapiens, UniProt P12821). Put plainly: Inhibition of Angiotensin I converting enzyme. The following applies: read-out: I50.
As for `O=C(O)[C@@H]1CCCN1C(=O)CCS`, the IC50 was 1800 µM.
The same measure, in the same setting: next, `O=C(O)CN1C(=O)[C@@H](NC(CCc2ccccc2)C(=O)O)CSc2ccccc21` (stereo partly specified): 0.003 µM; `C[C@H](NC(=O)[C@H](Cc1ccccc1)NC(=O)c1ccccc1)C(=O)N1CCC[C@H]1C(=O)O` (Bz-Phe-Ala-Pro-OH): 0.0032 µM.
On the same count and under the same terms, next, `O=C(O)[C@H]1CCCN1C(=O)CCS`: 0.2 µM.

For a further experiment, the target named is T1, Angiotensin-converting enzyme. The experiment can be described thus: Compound was evaluated for the inhibition of Angiotensin I converting enzyme.
Details: not given
On to `C[C@@H](NP(=O)(O)O)C(=O)N1CCC[C@H]1C(=O)O`, for which the Ki (usually a measure of affinity in units of concentration, obtained from inhibition or displacement) turned out to be 0.0014 µM.
Same read-out and setting: under `C[C@H](NP(=O)(O)CCc1ccccc1)C(=O)N1CCC[C@H]1C(=O)O` stands 0.0005 µM.
